Reference: ChEMBL document CHEMBL1148535, “Hexylitaconic acid: a new inhibitor of p53-HDM2 interaction isolated from a marine-derived fungus, Arthrinium sp” (Bioorg Med Chem Lett, 2006)
Active and inactive are the calls of the source. No cut-off for these calls is given here.

molecular target: T1, E3 ubiquitin-protein ligase Mdm2 (Homo sapiens, UniProt Q00987); test: Inhibition of p53-HDM2 interaction at 50 ug/ml
Target sequence in this assay (Q00987 whole entry, looked up): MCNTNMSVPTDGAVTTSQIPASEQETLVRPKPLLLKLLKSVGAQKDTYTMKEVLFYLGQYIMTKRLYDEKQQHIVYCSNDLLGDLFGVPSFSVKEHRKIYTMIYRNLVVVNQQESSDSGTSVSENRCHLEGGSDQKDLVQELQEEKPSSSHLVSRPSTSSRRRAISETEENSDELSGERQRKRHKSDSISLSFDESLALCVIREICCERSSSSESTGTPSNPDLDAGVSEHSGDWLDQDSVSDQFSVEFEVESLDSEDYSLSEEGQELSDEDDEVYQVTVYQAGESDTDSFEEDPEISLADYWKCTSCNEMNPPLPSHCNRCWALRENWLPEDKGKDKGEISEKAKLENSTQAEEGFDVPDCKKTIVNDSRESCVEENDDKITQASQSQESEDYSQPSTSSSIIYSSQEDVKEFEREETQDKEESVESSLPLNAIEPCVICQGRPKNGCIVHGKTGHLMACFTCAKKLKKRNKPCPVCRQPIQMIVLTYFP

SMILES | Activity
CCCCCCC(C(=O)OC)C(C)C(=O)O (stereo unspecified) | inactive
CCCCCCC(C(=O)O)C(C)C(=O)O (stereo unspecified) | inactive
C=C(CC(=O)O)C(=O)O | inactive
C=C(C(=O)O)C(CCCCCC)C(=O)OC (stereo unspecified) | inactive
O=C(O)CCC(=O)O | inactive

molecular target: T1, E3 ubiquitin-protein ligase Mdm2; test: Inhibition of p53-HDM2 interaction
Target sequence in this assay (Q00987 whole entry): as the sequence (Q00987 whole entry, looked up) above

SMILES | IC50 [µM]
C=C(C(=O)O)C(CCCCCC)C(=O)O (stereo unspecified) [HEXYLITACONIC ACID] | 233
